The source of these data is patent US11040981B2, “Pyrrolotriazine compounds and methods of inhibiting TAM kinases” (Syros Pharmaceuticals, Inc., priority 2017, dated 2021).

One assay addresses T1, FLT3 (Homo sapiens, UniProt P36888).
T1 sequence (P36888 27-993): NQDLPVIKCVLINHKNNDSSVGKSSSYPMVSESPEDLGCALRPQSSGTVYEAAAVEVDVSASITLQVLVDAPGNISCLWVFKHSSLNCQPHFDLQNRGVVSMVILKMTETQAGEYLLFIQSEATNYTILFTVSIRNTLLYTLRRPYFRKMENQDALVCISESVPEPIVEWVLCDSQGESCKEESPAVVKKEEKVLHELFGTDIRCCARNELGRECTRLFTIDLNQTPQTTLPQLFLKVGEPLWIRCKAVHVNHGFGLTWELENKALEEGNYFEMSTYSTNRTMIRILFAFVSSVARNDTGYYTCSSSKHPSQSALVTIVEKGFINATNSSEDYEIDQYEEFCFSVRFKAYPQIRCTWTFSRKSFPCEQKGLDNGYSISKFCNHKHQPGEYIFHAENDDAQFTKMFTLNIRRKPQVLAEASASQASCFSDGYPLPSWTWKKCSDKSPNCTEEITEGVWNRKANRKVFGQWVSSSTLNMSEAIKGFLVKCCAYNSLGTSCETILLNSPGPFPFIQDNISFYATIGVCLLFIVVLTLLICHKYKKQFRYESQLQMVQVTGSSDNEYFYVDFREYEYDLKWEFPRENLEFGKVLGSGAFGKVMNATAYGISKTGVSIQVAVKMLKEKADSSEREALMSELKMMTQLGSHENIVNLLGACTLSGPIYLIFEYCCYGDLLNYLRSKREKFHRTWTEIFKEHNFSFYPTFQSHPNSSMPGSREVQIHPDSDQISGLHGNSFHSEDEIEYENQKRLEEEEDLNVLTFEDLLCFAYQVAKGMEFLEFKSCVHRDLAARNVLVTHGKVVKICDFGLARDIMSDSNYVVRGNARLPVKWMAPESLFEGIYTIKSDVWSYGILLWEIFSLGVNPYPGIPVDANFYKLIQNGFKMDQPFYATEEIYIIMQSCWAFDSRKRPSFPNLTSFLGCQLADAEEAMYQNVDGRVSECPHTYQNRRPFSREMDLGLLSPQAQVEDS
Briefly: TR-FRET kinase activity assay, FLT3. Type of assay: biochemical. The note with it: ATP at Km, 60 minutes. The procedure, abridged: (§1)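 Inhibition is measured as loss of phospho-peptide formation: kinase, fluorescent tyrosine peptide and compound are combined, ATP is added at Km, and the reaction proceeds 60 min at RT in pH 7.5 HEPES buffer. An EDTA stop and Eu-labelled phospho-specific antibody allow TR-FRET detection for IC50 fitting.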

The next assay deals with T2, AXL (Homo sapiens, UniProt P30530).
T2 sequence (P30530 26-894): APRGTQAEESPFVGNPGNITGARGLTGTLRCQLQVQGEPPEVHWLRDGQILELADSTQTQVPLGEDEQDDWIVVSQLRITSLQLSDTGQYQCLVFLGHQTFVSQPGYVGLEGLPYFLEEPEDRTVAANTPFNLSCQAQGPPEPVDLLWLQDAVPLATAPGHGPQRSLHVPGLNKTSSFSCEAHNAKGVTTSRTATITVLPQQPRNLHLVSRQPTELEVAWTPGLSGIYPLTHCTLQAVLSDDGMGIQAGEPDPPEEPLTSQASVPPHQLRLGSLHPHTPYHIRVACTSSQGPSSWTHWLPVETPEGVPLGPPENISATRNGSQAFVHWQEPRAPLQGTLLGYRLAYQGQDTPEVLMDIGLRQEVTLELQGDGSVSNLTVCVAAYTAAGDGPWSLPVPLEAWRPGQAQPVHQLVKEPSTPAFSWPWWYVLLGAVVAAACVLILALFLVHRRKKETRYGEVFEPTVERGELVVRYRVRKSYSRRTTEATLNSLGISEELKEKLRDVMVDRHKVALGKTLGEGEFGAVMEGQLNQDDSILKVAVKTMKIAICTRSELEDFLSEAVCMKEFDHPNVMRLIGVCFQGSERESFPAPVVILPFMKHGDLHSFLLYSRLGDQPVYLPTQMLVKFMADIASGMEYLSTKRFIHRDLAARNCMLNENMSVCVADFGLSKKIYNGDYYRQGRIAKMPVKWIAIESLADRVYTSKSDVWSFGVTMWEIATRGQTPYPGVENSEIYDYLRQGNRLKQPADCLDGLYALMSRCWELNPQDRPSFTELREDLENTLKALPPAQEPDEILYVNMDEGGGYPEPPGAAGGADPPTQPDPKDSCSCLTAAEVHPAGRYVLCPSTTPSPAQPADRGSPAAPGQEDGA
Briefly: TR-FRET kinase activity assay, AXL. In kind it is biochemical. The note with it: ATP at Km, 60 minutes. The procedure, abridged:
as §1
(In general: In TR-FRET formats the signal depends on donor and acceptor labels being close together.)

The structures appear in SMILES notation.

For orientation: IC50 means the point on the concentration scale where inhibition reaches its midpoint. Low values mean greater potency, high ones weaker potency. For `COC[C@H](C)Nc1ncc2c(-c3cnn(C(C)(C)C(=O)N4CCCC5(COC5)C4)c3)cc([C@H]3CC[C@H](O)CC3)n2n1` [Compound 516], the half-maximal inhibitory concentration (IC50) is 1000 to 10000 nM against FLT3 and at most 100 nM against AXL.

As for `COC[C@H](C)Nc1ncc2c(-c3ccc(CN4CCOCC4)cc3)cc([C@H]3CC[C@H](O)CC3)n2n1` [Compound 140], the IC50 is 100 to 1000 nM on FLT3 and at most 100 nM at AXL.

On to `CC[C@H](C)Nc1ncc2c(C3CCN(c4nccc(C)n4)CC3)cc([C@H]3CC[C@H](O)CC3)n2n1` [Compound 136, (trans)-4-(2-((S)-sec-butylamino)-5-(1-(4-methylpyrimidin-2-yl)piperidin-4-yl)pyrrolo[2,1-f][1,2,4]triazin-7-yl)cyclohexanol], for which the concentration for half-maximal inhibition (IC50) lay in the range of 1000 to 10000 nM against FLT3 and 100 to 1000 nM against AXL.

Regarding `COCC(C)Nc1ncc2c(-c3cccc(-c4nnc(C)o4)c3)cc(C3CCC(O)CC3)n2n1` (stereo not drawn) [Compound 551], the half-inhibitory concentration (IC50) is 1000 to 10000 nM at FLT3 and at most 100 nM on AXL.

With `CCS(=O)(=O)N1CC(CC#N)(n2cc(-c3cc([C@H]4CC[C@H](O)CC4)n4nc(N[C@@H](C)COC)ncc34)cn2)C1` [Compound 567], the values for the IC50 at FLT3 and against AXL were 1000 to 10000 nM and at most 100 nM, respectively.

In the case of `C[C@@H](COC(F)F)Nc1ncc2c(-c3cnn(C(C)(C)C(=O)N4CCN(C)CC4)c3)cc([C@H]3CC[C@H](O)CC3)n2n1` [Compound 593], the half-inhibitory concentration (IC50) on FLT3 is 100 to 1000 nM; against AXL, at most 100 nM.

Turning to `COCC(C)Nc1ncc2c(-c3cccc(N4CCOCC4)c3)cc(C3CCC(O)CC3)n2n1` (stereo not drawn) [Compound 562], the IC50 against FLT3 and on AXL was at most 100 nM in each case.

Regarding `COC[C@H](C)Nc1ncc2c(-c3ccnc([S@@](C)(=N)=O)c3)cc([C@H]3CC[C@H](O)CC3)n2n1` [Compound 574], the half-inhibitory concentration (IC50) at FLT3 was in the range of 1000 to 10000 nM; against AXL it was 100 to 1000 nM.

For `C[C@@H](CC(F)(F)F)Nc1ncc2c(-c3ccnc([S@](C)(=N)=O)c3)cc([C@H]3CC[C@H](O)CC3)n2n1` [Compound 580], the IC50 against FLT3 and at AXL was at most 100 nM each time.

For the compound `COC[C@H](C)Nc1ncc2c(-c3cnn(C4COC4)c3)cc([C@@H]3CC[C@H](O)[C@@H](C)C3)n2n1` [Compound 588], the IC50 against FLT3 and against AXL was 100 to 1000 nM throughout.

On to `COC[C@H](C)Nc1ncc2c(-c3cnn(C4COC4)c3)cc(C3CCC(=O)NC3)n2n1` (stereo partly drawn) [Compound 526], for which the 50% inhibitory concentration (IC50) against FLT3 and on AXL was 1000 to 10000 nM throughout.

Consider `CC[C@]1(O)CC[C@H](c2cc(-c3ccnc(N4CCOCC4)c3)c3cnc(N[C@@H](C)COC)nn32)CC1` [Compound 568], for which the IC50 on FLT3 was 100 to 1000 nM; against AXL, at most 100 nM.

In the case of `COC[C@H](C)Nc1ncc2c(-c3cnn(C(C)(C)C(=O)N4CCOCC4)c3)cc([C@H]3CC[C@](C)(O)CC3)n2n1` [Compound 560], the results for the IC50 against FLT3 and against AXL were 100 to 1000 nM and at most 100 nM, respectively.

As for `C[C@@H](Nc1ncc2c(-c3cnn(C4COC4)c3)cc([C@H]3CC[C@H](O)CC3)n2n1)C(F)(F)F` [Compound 527], the half-maximal inhibitory concentration (IC50) against FLT3 and against AXL was 100 to 1000 nM in each case.

As for `COC[C@H](C)Nc1ncc2c(-c3cncc([S@](C)(=N)=O)c3)cc([C@H]3CC[C@@H](O)CC3)n2n1` [Compound 572], the figures for the 50% inhibitory concentration (IC50) on FLT3 and on AXL were above 10000 nM and 100 to 1000 nM, respectively.

Consider `COC[C@H](C)Nc1ncc2c([C@H]3CC[C@H](C(C)=O)CC3)cc([C@H]3CC[C@H](O)CC3)n2n1` [Compound 576], for which the IC50 was in the range of 1000 to 10000 nM against FLT3 and 100 to 1000 nM on AXL.

With `COC[C@H](C)Nc1ncc2c(-c3ccnc([S@](C)(=N)=O)c3)cc([C@H]3CC[C@H](O)CC3)n2n1` [Compound 575], the IC50 against FLT3 lay in the range of 1000 to 10000 nM; at AXL, 100 to 1000 nM.

Take `COC[C@H](C)Nc1ncc2c(-c3cnn(C4COC4)c3)cc(C3CCSCC3)n2n1` [Compound 522]: the IC50 on FLT3 and against AXL was 100 to 1000 nM throughout.

As to `COC[C@H](C)Nc1ncc2c(-c3cnn(C(C)(C)C(=O)N4CCOCC4)c3)cc([C@H]3CC[C@@H](O)CC3)n2n1` [Compound 547], the IC50 was 100 to 1000 nM against FLT3 and at most 100 nM on AXL.

`COC[C@H](C)Nc1ncc2c(-c3cnn(C4COC4)c3)cc([C@@H]3CC[C@H](O)[C@H](C)C3)n2n1` [Compound 587]: the half-inhibitory concentration (IC50) is 100 to 1000 nM on FLT3 and at most 100 nM on AXL.

Turning to `COCC(C)Nc1ncc2c(-c3ccc4ncoc4c3)cc(C3CCC(O)CC3)n2n1` (stereo not drawn) [Compound 552], the IC50 was 100 to 1000 nM against FLT3 and at most 100 nM at AXL.

With `CC[C@H](C)Nc1ncc2c(C3CCNCC3)cc([C@H]3CC[C@H](O)CC3)n2n1` [Compound 135, (trans)-4-(2-((S)-sec-butylamino)-5-(piperidin-4-yl)pyrrolo[2,1-f][1,2,4]triazin-7-yl)cyclohexanol], the half-inhibitory concentration (IC50) against FLT3 is 100 to 1000 nM; against AXL, at most 100 nM.

For the compound `COC[C@H](C)Nc1ncc2c(-c3cnn(C(C)(C)C(=O)N4CCOCC4)c3)cc([C@@H]3CCc4cn[nH]c4C3)n2n1` [Compound 594], the results for the concentration for half-maximal inhibition (IC50) against FLT3 and on AXL were 1000 to 10000 nM and at most 100 nM, respectively.

In the case of `COC[C@H](C)Nc1ncc2c(-c3cnn(C4COC4)c3)cc([C@@H]3CC[C@H](O)C(C)(C)C3)n2n1` [Compound 571], the 50% inhibitory concentration (IC50) against FLT3 and against AXL was 100 to 1000 nM throughout.

As to `C[C@@H](COC(F)F)Nc1ncc2c(-c3ccc(S(C)(=O)=O)nc3)cc([C@H]3CC[C@H](O)CC3)n2n1` [Compound 513], the half-inhibitory concentration (IC50) was 100 to 1000 nM on FLT3 and at most 100 nM against AXL.

Turning to `COC[C@H](C)Nc1ncc2c(-c3cnn(C4COC4)c3)cc(-c3cccc(O)c3)n2n1` [Compound 511], the 50% inhibitory concentration (IC50) against FLT3 lay within 100 to 1000 nM; on AXL, 1000 to 10000 nM.

For the compound `COC[C@H](C)Nc1ncc2c(-c3ccnc(N4CCOCC4)c3)cc([C@H]3CC[C@@](C)(O)CC3)n2n1` [Compound 548], the 50% inhibitory concentration (IC50) was 100 to 1000 nM against FLT3 and at most 100 nM against AXL.
